Measurements from article PMC11432330, “Novel Drug-like HsrA Inhibitors Exhibit Potent Narrow-Spectrum Antimicrobial Activities against Helicobacter pylori” (International Journal of Molecular Sciences, 2024).

Test system: H. pylori 26695
Test: In vivo inhibition of HsrA: RNA-Seq transcriptomic analysis of exposed cells
Type: cell-based, Helicobacter pylori
Conditions: for log2 Fold Change: exposed to lethal concentrations vs control
Protocol: Bacterial growth from three blood agar plates of H. pylori ATCC 700392 (aka 26695) incubated for 48 h at 37 °C under microaerobic conditions was aseptically resuspended in BHI + FBS and adjusted to 10^7 CFU/mL. BHI broth cultures were incubated microaerobically at 37 °C for 24 h. […] At this time, bacterial growth was stopped by adding 1.5 mL ice-cold RNA stop solution (95% absolute ethanol, 5% acid-buffered phenol) and subsequently incubated on ice. Control samples were exposed to the same amount of DMSO instead of the inhibitor. Helicobacter cells from all samples were harvested by centrifugation (4000 rpm at 4 °C for 10 min), then the pellets were quickly frozen by immersion in liquid nitrogen and stored at −80 °C.
RNA-Seq analysis was performed by GENEWIZ (Azenta Life Sciences, Leipzig, Germany). Frozen cell pellets from two biological replicates of each treatment condition were properly submitted to GENEWIZ in dry ice. RNA-Seq libraries were prepared according to standard protocols via rRNA depletion, RNA fragmentation and random priming, reverse transcription, 5’-phosphorylation and dA-tailing of cDNAs, adaptor ligation, and PCR enrichment. Once the quality of each library was confirmed, they were sequenced on an Illumina NovaSeq 6000 (Illumina, San Diego, CA, USA) with 150-bp paired-ends. Raw sequence reads were filtered to remove possible adapter sequences and nucleotides with poor quality using Trimmomatic v.0.36 [105]. The trimmed reads were subsequently mapped to the H. pylori strain 26695 reference genome NC_000915.1 available on NCBI, by using the Bowtie2 aligner v.2.2.6 [106]. Unique gene hit counts were calculated by using featureCounts from the Subread package v.1.5.2. Only unique reads that fell within the gene regions were counted. Using DESeq2 [108], a comparison of the gene expression between the control and treated groups of samples was performed. The Wald test was used to generate p-values and log2 fold changes. Genes with an adjusted p-value < 0.05 and absolute log2 fold change >1 were considered as differentially expressed genes (DEGs) for each comparison. The RNA-Seq data generated in this study have been deposited in ArrayExpress with the accession number E-MTAB-14255.

Compound: NC(=NOC(=O)Nc1ccc(Cl)cc1)c1csc([N+](=O)[O-])c1 [Ligand V, N′-{[(4-chloroanilino)carbonyl]}oxy-5-nitrothiophene-3-carboximidamide]
- log2 Fold Change (gene HP0450): -0.486
- log2 Fold Change (gene HP0462): -0.540
- log2 Fold Change HP0464 (gene HP0464, lethal concentrations of V vs control): 0.429
- log2 Fold Change (gene HP0465): -0.541
- log2 Fold Change (gene HP0469): 1.295
- log2 Fold Change (gene HP0472): 1.301
- log2 Fold Change HP0474 (gene HP0474, lethal concentrations of V vs control): 0.428
- log2 Fold Change HP0485 (gene HP0485, lethal concentrations of V vs control): 0.392
- log2 Fold Change HP0513 (gene HP0513, lethal concentrations of V vs control): 0.406
- log2 Fold Change HP0515 (gene HP0515, lethal concentrations of V vs control): 0.192
- log2 Fold Change (gene HP0518): -0.587
- log2 Fold Change HP0536 (gene HP0536, lethal concentrations of V vs control): 0.397
- log2 Fold Change (gene HP0537): -0.567
- log2 Fold Change HP0540 (gene HP0540, lethal concentrations of V vs control): 0.190
- log2 Fold Change HP0546 (gene HP0546, lethal concentrations of V vs control): 0.161
- log2 Fold Change (gene HP0555): -0.497
- log2 Fold Change HP0563 (gene HP0563, lethal concentrations of V vs control): 0.320
- log2 Fold Change (gene HP0568): -0.470
- log2 Fold Change HP0586 (gene HP0586, lethal concentrations of V vs control): 0.156
- log2 Fold Change HP0587 (gene HP0587, lethal concentrations of V vs control): 0.303
- log2 Fold Change HP0602 (gene HP0602, lethal concentrations of V vs control): 0.450
- log2 Fold Change (gene HP0608): -0.470
- log2 Fold Change (gene HP0613): 1.327
- log2 Fold Change HP0639 (gene HP0639, lethal concentrations of V vs control): 0.172
- log2 Fold Change HP0640 (gene HP0640, lethal concentrations of V vs control): 0.392
- log2 Fold Change (gene HP0641): -0.474
- log2 Fold Change (gene HP0642): -0.561
- log2 Fold Change (gene HP0648): -0.611
- log2 Fold Change HP0650 (gene HP0650, lethal concentrations of V vs control): 0.145
- log2 Fold Change HP0652 (gene HP0652, lethal concentrations of V vs control): 0.477
- log2 Fold Change HP0660 (gene HP0660, lethal concentrations of V vs control): 0.172
- log2 Fold Change HP0670 (gene HP0670, lethal concentrations of V vs control): 0.376
- log2 Fold Change HP0680 (gene HP0680, lethal concentrations of V vs control): 0.219
- log2 Fold Change (gene HP0692): 1.329
- log2 Fold Change HP0699 (gene HP0699, lethal concentrations of V vs control): 0.318
- log2 Fold Change (gene HP0702): -0.528
- log2 Fold Change HP0709 (gene HP0709, lethal concentrations of V vs control): 0.245
- log2 Fold Change (gene HP0734): -0.529
- log2 Fold Change (gene HP0737): -0.509
- log2 Fold Change (gene HP0741): -0.519
- log2 Fold Change HP0742 (gene HP0742, lethal concentrations of V vs control): 0.440
- log2 Fold Change HP0748 (gene HP0748, lethal concentrations of V vs control): 0.146
- log2 Fold Change HP0750 (gene HP0750, lethal concentrations of V vs control): 0.398
- log2 Fold Change (gene HP0755): -0.518
- log2 Fold Change (gene HP0759): 1.350
- log2 Fold Change HP0763 (gene HP0763, lethal concentrations of V vs control): 0.150
- log2 Fold Change (gene HP0765): -0.541
- log2 Fold Change (gene HP0772): -0.471
- log2 Fold Change HP0773 (gene HP0773, lethal concentrations of V vs control): 0.301
- log2 Fold Change HP0782 (gene HP0782, lethal concentrations of V vs control): 0.353
- log2 Fold Change HP0796 (gene HP0796, lethal concentrations of V vs control): 0.282
- log2 Fold Change HP0803 (gene HP0803, lethal concentrations of V vs control): 0.182
- log2 Fold Change HP0805 (gene HP0805, lethal concentrations of V vs control): 0.416
- log2 Fold Change (gene HP0810): -0.532
- log2 Fold Change (gene HP0819): -0.529
- log2 Fold Change HP0820 (gene HP0820, lethal concentrations of V vs control): 0.198
- log2 Fold Change HP0823 (gene HP0823, lethal concentrations of V vs control): 0.406
- log2 Fold Change HP0833 (gene HP0833, lethal concentrations of V vs control): 0.436
- log2 Fold Change HP0836 (gene HP0836, lethal concentrations of V vs control): 0.282
- log2 Fold Change (gene HP0840): -0.593
- log2 Fold Change HP0858 (gene HP0858, lethal concentrations of V vs control): 0.348
- log2 Fold Change (gene HP0861): -0.479
- log2 Fold Change HP0864 (gene HP0864, lethal concentrations of V vs control): 0.392
- log2 Fold Change HP0872 (gene HP0872, lethal concentrations of V vs control): 0.335
- log2 Fold Change (gene HP0885): -0.551
- log2 Fold Change HP0890 (gene HP0890, lethal concentrations of V vs control): 0.409
- log2 Fold Change HP0897 (gene HP0897, lethal concentrations of V vs control): 0.220
- log2 Fold Change HP0898 (gene HP0898, lethal concentrations of V vs control): 0.196
- log2 Fold Change HP0900 (gene HP0900, lethal concentrations of V vs control): 0.416
- log2 Fold Change HP0909 (gene HP0909, lethal concentrations of V vs control): 0.281
- log2 Fold Change (gene HP0916): -0.568
- log2 Fold Change (gene HP0935): -0.494
- log2 Fold Change (gene HP0936): -0.576
- log2 Fold Change (gene HP0939): -0.568
- log2 Fold Change HP0946 (gene HP0946, lethal concentrations of V vs control): 0.226
- log2 Fold Change HP0948 (gene HP0948, lethal concentrations of V vs control): 0.237
- log2 Fold Change HP0949 (gene HP0949, lethal concentrations of V vs control): 0.337
- log2 Fold Change (gene HP0953): -0.500
- log2 Fold Change HP0955 (gene HP0955, lethal concentrations of V vs control): 0.173
- log2 Fold Change HP0963 (gene HP0963, lethal concentrations of V vs control): 0.462
- log2 Fold Change HP0976 (gene HP0976, lethal concentrations of V vs control): 0.322
